Columns and labels:
α-glucosidase [1] = biological target: T1, α-glucosidase (Saccharomyces cerevisiae, UniProt P53341); test: α-glucosidase inhibition assay; assay type: biochemical, S. cerevisiae
α-glucosidase [2] = biological target: T1, α-glucosidase; test: Enzyme kinetics study; assay type: biochemical, S. cerevisiae

T1 sequence (P53341 whole entry): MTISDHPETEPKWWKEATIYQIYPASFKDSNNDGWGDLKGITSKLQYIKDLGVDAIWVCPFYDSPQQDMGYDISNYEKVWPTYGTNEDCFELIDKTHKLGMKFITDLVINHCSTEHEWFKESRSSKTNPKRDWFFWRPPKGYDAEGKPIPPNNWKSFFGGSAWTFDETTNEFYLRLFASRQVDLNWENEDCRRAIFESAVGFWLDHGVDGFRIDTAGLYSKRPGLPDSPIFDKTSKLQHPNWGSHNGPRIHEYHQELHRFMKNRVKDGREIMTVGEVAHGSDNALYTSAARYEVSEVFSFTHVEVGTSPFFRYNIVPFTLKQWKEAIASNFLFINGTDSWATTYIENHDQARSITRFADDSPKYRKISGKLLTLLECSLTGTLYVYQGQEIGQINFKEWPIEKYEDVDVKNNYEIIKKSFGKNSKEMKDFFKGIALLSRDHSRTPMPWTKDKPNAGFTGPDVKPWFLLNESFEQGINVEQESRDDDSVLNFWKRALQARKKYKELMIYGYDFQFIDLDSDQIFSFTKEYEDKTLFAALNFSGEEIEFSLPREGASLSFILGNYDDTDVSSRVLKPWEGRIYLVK

Compound | times/folds more active than the standard inhibitor acarbose (α-glucosidase [1]) | also measured
COc1ccc(NC(=S)NN=Cc2cn(S(=O)(=O)c3ccc(Cl)cc3)c3ccccc23)cc1 [Compound 5b, 2-({1-[(4-Chlorophenyl)sulfonyl]-1H-indol-3-yl}methylene)-N-(4-methoxyphenyl)hydrazine-1-carbothioamide] |  | folds more active than 5k (α-glucosidase [1]; 4-methoxyphenyl vs 3-methoxyphenyl): 1.3 folds
CC(C)CNC(=S)NN=Cc1cn(S(=O)(=O)c2ccc(Cl)cc2)c2ccccc12 [Compound 5p, 2-({1-[(4-Chlorophenyl)sulfonyl]-1H-indol-3-yl}methylene)-N-isobutylhydrazine-1-carbothioamide] | fifteen | 

Further lines, with some results ahead:

times/folds more active than the standard inhibitor acarbose (α-glucosidase [1]) | Compound | also measured
more than 100 folds | O=S(=O)(c1ccc(Cl)cc1)n1cc(C=NNC(=S)Nc2ccc(Br)cc2)c2ccccc21 [Compound 5s, N-(4-Bromophenyl)-2-({1-[(4-chlorophenyl)sulfonyl]-1H-indol-3-yl}methylene)hydrazine-1-carbothioamide] | 
162 folds | O=S(=O)(c1ccc(Cl)cc1)n1cc(C=NNC(=S)Nc2ccc(Br)cc2F)c2ccccc21 [Compound 5u, N-(4-Bromo-2-fluorophenyl)-2-({1-[(4-chlorophenyl)sulfonyl]-1H-indol-3-yl}methylene)hydrazine-1-carbothioamide] | better inhibition of 5u compared to 5p (α-glucosidase [1]; most active vs least active inhibitor): about 11 folds; Ki (α-glucosidase [2]): 3.57 ± 0.0084 µM; type of inhibition (α-glucosidase [2]; Km increases, Vmax constant): competitive type inhibitor
more than 100 folds | O=S(=O)(c1ccc(Cl)cc1)n1cc(C=NNC(=S)Nc2c(Cl)cccc2Cl)c2ccccc21 [Compound 5w, 2-({1-[(4-Chlorophenyl)sulfonyl]-1H-indol-3-yl}methylene)-N-(2,6-dichlorophenyl)hydrazine-1-carbothioamide] | 
